Laboratory results reported in patent US20190300885A1, “A NOVEL ROLE FOR TERMINAL RNA URIDYLATION AND RNA TURNOVER IN ONCOGENESIS” (Children's Medical Center Corporation, priority 2016, published 2019).
“Also recorded” adds a separate entry of the source.

Experiments:
[1] = system: HCT116 cells; test: Growth curves of wild-type vs ZCCHC6 knockout HCT116 cells under increasing drug concentrations; type: cell-based, human; conditions: HCT116, CRISPR/Cas9 ZCCHC6 knockout (KO) vs GFP-sgRNA control (WT)
Source text: FIGS. 5A-5B. TUTase loss sensitizes cancer cells to disruption of RNA metabolism. […] Error bars indicate SEM (n=3); *P<0.05, **P<0.01.
Given the observed phenotypes, whether there are conditions that specifically sensitize cancer cells to TUTase loss was examined. In particular, since TUTases have been associated with RNA turnover, it was surmised that they may play an especially important role in the context of perturbed RNA metabolism. To address this hypothesis, small molecule agents that are known to cause DNA/RNA damage and thus impair RNA quality (doxorubicin, cisplatin, etoposide), as well as ones that inhibit nucleotide synthesis and thereby limit the pool of available nucleotides in the cell (5-fluorouracil and hydroxyurea) were selected, and wild-type and ZCCHC6 knockout HCT116 cells were treated with increasing concentrations of each agent (FIG. 5A). […] 5-FU has been specifically shown to target the RNA exosome complex, which may explain its differential activity from hydroxyurea in the experiments.

[2] = system: HCT116 cells; test: Growth/viability of wild-type vs TUTase knockout HCT116 cells under increasing bortezomib concentrations; type: cell-based, human; conditions: HCT116, ZCCHC6 knockout vs WT
Source text: FIG. 16. TUTase loss has a downstream impact on protein turnover. Top, the relative rates of global mRNA translation as measured by the OP-Puromycin fluorescent assay are shown. siNC=negative control siRNA; siZ6=siZCCHC6. Error bars indicate SEM (n=3); *P<0.05. Bottom, growth curves of HCT116 cells after CRISPR/Cas9-mediated knockout using a ZCCHC6-targeting sgRNA (KO) or a GFP-targeting control sgRNA (WT) under treatment with different concentrations of bortezomib are shown.
Given that TUTases affect mRNA turnover, it was also surmised that they may have a downstream effect on protein turnover. To address this hypothesis, the global rate of translation in TUTase knockdown versus control HCT116 cells was measured using the OP-Puromycin method. […] In addition, we treated wild-type and TUTase knockout HCT116 cells with increasing concentrations of bortezomib, an inhibitor of the proteasome and thus protein decay (FIG. 16).

SMILES	differential dose-dependent growth response of ZCCHC6 knockout vs wild-type cells [1]	effect on cell viability in TUTase knockout vs wild-type cells [2]
COc1cc([C@@H]2c3cc4c(cc3[C@@H](O[C@@H]3O[C@@H]5CO[C@@H](C)O[C@H]5[C@H](O)[C@H]3O)[C@H]3COC(=O)[C@H]23)OCO4)cc(OC)c1O [etoposide]	only 5-fluorouracil (5-FU) yielded a differential dose-dependent response	
N.N.[Cl][Pt][Cl] [cisplatin]	only 5-fluorouracil (5-FU) yielded a differential dose-dependent response	
CC(C)C[C@H](NC(=O)[C@H](Cc1ccccc1)NC(=O)c1cnccn1)B(O)O [bortezomib]		stronger in the TUTase knockout cells
O=c1[nH]cc(F)c(=O)[nH]1 [5-fluorouracil]	reproducibly stronger effect on the knockout cells; also recorded: significantly stronger inhibitory effect on cells depleted of TUTase	
COc1cccc2c1C(=O)c1c(O)c3c(c(O)c1C2=O)C[C@@](O)(C(=O)CO)C[C@@H]3O[C@H]1C[C@H](N)[C@H](O)[C@H](C)O1 [doxorubicin]	only 5-fluorouracil (5-FU) yielded a differential dose-dependent response	
